Data published in patent US11141389B2, “Agents that inhibit NGLY1 and methods of use thereof” (The Board of Trustees of the Leland Stanford Junior …, priority 2017, dated 2021).
pIC50: −log10 of the molar value. Read-outs that look alike come from different tables or passages of the source. Residues, ends and D or L forms follow the SMILES beside them. *: point of attachment. Cbz = O=C(OCc1ccccc1)*; CH2F = FC*

How the values were obtained:
caspases 3/7 = test: Caspase 3/7 inhibition assay (Caspase-Glo, staurosporine-induced U266 cells); format: cell-based; conditions: staurosporine 1 μM, 8 hours
Experimental: We were further interested to see whether this molecule would also hit caspases, similar to the known Ngly1 inhibitor Z-VAD-fmk. […] Inhibition of caspases 3/7 was not observed until a concentration of about 10 μM was reached. In addition, the relative activity was not lowered below the range observed by induced apoptosis
Caspase 3/7 inhibition assay. 1 million U266 cells were suspended in 10 mL RPMI 15% BSA+PS, and plated into a flat-bottom, white-walled 96-well plate (100 μL per well). The plate was incubated at 37° C. overnight. The following day, cells were treated with staurosporine (apoptosis inducer, final concentration 1 μM), WRR139 or Z-VAD-fmk (at final concentrations shown) or DMSO to a final concentration of 2% DMSO (v/v) respectively. The plate was incubated for 8 hours at 37° C. Caspase-Glo kit reagent (company details) was prepared as per instruction from the manufacturer and after equilibration to 23° C. […] of the reagent was added to each well. […] Caspase inhibition was calculated by subtracting background (signal from media containing no cells) and comparison to signal from cells with induced apoptosis (staurosporine only).

NGly1 [1] = target: T1, NGly1 (Homo sapiens, UniProt Q96IV0); test: Cresswell assay (ddVenus fluorescence on deglycosylation by NGly1) in stably transfected K562 cells; format: cell-based; parameters: endogenous in cells; host or cells: K562 cells stably transfected with the ddVenus reporter; conditions: for pIC50: K562 ddVenus cells, read-out: IC50 (reduction of fluorescence)
T1 sequence (Q96IV0 1-654): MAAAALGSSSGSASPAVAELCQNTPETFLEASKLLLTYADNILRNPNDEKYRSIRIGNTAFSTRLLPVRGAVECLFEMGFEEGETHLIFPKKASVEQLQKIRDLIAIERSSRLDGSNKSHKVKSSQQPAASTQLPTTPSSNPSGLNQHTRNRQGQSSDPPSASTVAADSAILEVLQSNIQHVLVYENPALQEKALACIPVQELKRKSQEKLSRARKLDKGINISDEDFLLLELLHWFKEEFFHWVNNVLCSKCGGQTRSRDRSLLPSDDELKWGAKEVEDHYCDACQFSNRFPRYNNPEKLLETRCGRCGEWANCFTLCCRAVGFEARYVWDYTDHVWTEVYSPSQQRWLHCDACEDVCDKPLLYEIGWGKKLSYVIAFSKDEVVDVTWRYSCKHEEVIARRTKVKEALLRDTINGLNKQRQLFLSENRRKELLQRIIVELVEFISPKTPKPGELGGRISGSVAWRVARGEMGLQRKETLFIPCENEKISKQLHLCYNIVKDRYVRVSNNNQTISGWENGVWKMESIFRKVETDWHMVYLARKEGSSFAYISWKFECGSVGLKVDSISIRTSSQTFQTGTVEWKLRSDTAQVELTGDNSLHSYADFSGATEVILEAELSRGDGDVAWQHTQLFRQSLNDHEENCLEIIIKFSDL
Excerpt: The assay used was a modified version of the fluorimetric assay first described by the Cresswell lab in 2011. Prepared by the Steinmetz lab, a stably transfected K562 cell line was used. Mutated to misfold and contain a site for N-glycosylation, the expressed ddVenus would only properly fold, and thus fluoresce, upon deglycosylation by NGly1 and concurrent conversion of the glycosylated asparagine residue to aspartic acid (FIG. 4A). Thus inhibition of NGly1 would not activate fluorescence in this assay. With this method a library of about 600 cysteine-protease inhibitor-like compounds were screened. Six hits were found, all of which were peptide-derived structures with an electrophilic warhead consisting of either a vinyl sulfone or epoxyketone (FIG. 4B).
Screen of ˜600 compounds with the Cresswell Assay. Screens were performed clear, V-bottom 96-well plates. Plates were prepared with negative control 2 μL DMSO (A1) and positive control 1 μL DMSO+1 μL 10 mM Z-VAD-fmk (final conc. 100 uM Z-VAD-fmk; A12-H12). Wells A2-A11 contained 1 μL DMSO, the remaining wells contained 1 μL of 1 mM stocks of compounds from the library.
100 μL of suspended K562 ddVenus cells were added to the plate at 1×10^6 cells/mL. Wells A1-A12 contained cells in growth media. The remaining wells contained cells in growth media supplemented 100 uM carfilzomib.
The mean of fluorescence in FL1 was plotted for each well.
Z-factor for the assay ranged between 0.38-0.85.

NGly1 [2] = target: T1, NGly1; test: Gel shift of RNAse B exposed to recombinant Ngly1; format: biochemical; conditions: gel electrophoresis, in the presence of the compound
Excerpt: To detect direct inhibition of NGly1 by WRR139, the mass shift of RNAse B exposed to recombinant Ngly1 was observed by gel electrophoresis. In the presence of Ngly1, RNAse B was fully converted from its glycosylated band at pXXX to a deglycosylated protein at pXXX (FIG. 4D).

Nrf1 [3] = test: 3xPSMA4-ARE dual luciferase reporter assay in Nrf1 overexpressing HEK cells; format: cell-based, Human; conditions: compound prior to carfilzomib
Experimental: The same experiment was performed in Nrf1 overexpressing HEK cells in which NGly1 was inhibited by Z-VAD-fmk prior to incubation with carfilzomib. The caspase inhibitor QVD-OPh served as control to out rule that observed effect resulted from caspase inhibition.
(§1) Luciferase Assays. The construct 3xPSMA4-ARE-Luc (RDB-2415; a kind gift from Senthil Radhakrishnan, Virginia Commonwealth University) was described previously. Briefly, an oligo (5′-[…] […] […] […] […] […] […]-3′) (SEQ ID NO: 10) containing three copies of a putative ARE (shown in uppercase) derived from the first intron of the human PSMA4 gene was annealed to its corresponding reverse-complement oligo and cloned into pGL3-promoter vector (Promega). The promoter reporter was generated by inserting this construct upstream of a minimal SV40 promoter, driving the expression of a firefly luciferase.
Cells were transiently transfected with the firefly (promoter reporters) and renilla luciferase (pRL-TK; Promega) constructs along with effector plasmid as required. Cells were treated with compoubds or vehicle control for 12 hours. Afterwards cells were lysed in the luciferase assays were performed using the dual luciferase reporter assay system (E1910; Promega) according to the instructions from the manufacturer. The firefly luciferase activity was normalized to renilla luciferase activity for all experiments.

Nrf1 [4] = test: Confocal imaging of Nrf1 localization in Nrf1 overexpressing HEK cells; format: cell-based, Human
Excerpt: We further used confocal microscopy to visualize the localization of Nrf1 in MEFs and Nrf1 overexpressing HEK cells before and after treatment with carfilzomib (FIGS. 2B and C). In absence of carfilzomib Wt and NGly1^−/− MEFs show Nrf1 (in white) in low abundance and mainly in the cytosol (FIG. 2B). After treating the cells with carfilzomib for several hours, wt MEFs show Nrf1 in the nucleus whereas NGly1^−/− MEFs only show a higher abundance of Nrf1 in the cytosol. […] Untreated cells show Nrf1 mainly in the cytosol around the ER. […] Taking all the results in account we conclude that functioning NGly1 is required to activate Nrf1.
Immunofluorescence followed by confocal imaging. MEFs and Nrf-3× Flag overexpressing HEK cells were grown to 80% confluency on cover slips. Cells were treated with NGLy1-, caspase-, and proteasome inhibitors as indicated and allowed to recover in fresh media for one hour before cells were fixed using 100% ice cold methanol. Cells were treated with a primary rabbit monoclonal antibody raised against the N-terminus of Nrf1 (D5B10, Cell Signaling) and a secondary polyclonal Alexa Fluor0647 AffiniPure Fab Fragment Goat Anti-Rabbit IgG (H+L) (Jackson Immuno Research). […] Images were analyzed using Imaris analysis software (version). […]

[5] = test system: multiple myeloma cell lines; test: Potentiation of proteasome inhibition in multiple myeloma cell lines; format: cell-based
Excerpt: Considering the effect of NGly1 KO or knockdown for proteasome inhibitor potentiation, we hoped to find the same effect through the use of a small molecule inhibitor of NGly1. Attempts to use Z-VAD-fmk to potentiate proteasome inhibition in multiple myeloma cell lines were unsuccessful, possibly due to its activity as a potent pan-caspase inhibitor.

Nrf1 [6] = test: Immunoblot of Nrf1 processing in Nrf1 overexpressing HEK cells; format: cell-based, Human; conditions: compound before carfilzomib
Excerpt: In a second attempt, we used Nrf1 overexpressing HEK cells and applied the small molecule Z-VAD-fmk (FIG. 1B) to inhibit NGly1 before treating the cells with carfilzomib. […] The higher abundance of the p120 band indicates the existence of the N-glycosylated form of Nrf1 as the main species in cells treated with Z-VAD-fmk. […] Thus, the incorrect processing of Nrf1 that we observed in cells treated with Z-VAD-fmk results from inhibition of NGly1 and not from caspase inhibition.
Nrf-3× Flag overexpressing HEK cells (RDB-2867; a kind gift from Senthil Radhakrishnan, Virginia Commonwealth University) were obtained by cloning Human Nrf1 coding region along with a C-terminal 3× Flag sequence into pcDNA3.1+ (Invitrogen, Carlsbad, Calif.). Cells were grown in Dulbecco's modified Eagle's medium (DMEM) supplemented with 10% fetal bovine serum (Clontech Laboratories), penicillin, and streptomycin (Fisher Scientific) at 37° C. in 5% CO2.
Immunoblot Analysis. Cells were lysed in RIPA buffer (50 mM Tris [pH 7.4], 150 mM NaCl, 1% NP40, 1% Na. Deoxycholate, 0.1% SDS, and 1 mM EDTA) supplemented with protease and phosphatase inhibitor cocktail (Pierce). For detecting Nrf1 a rabbit monoclonal antibody raised against the N terminus (D5B10, Cell Signaling) was used. Other immunoblots were performed with antibodies specific for Flag tag (Sigma-Aldrich) and β-actin (Cell Signaling).

[7] = patients; cited from earlier work
MEF cells = test: Viability of MEF NGly1-/- versus MEF WT with carfilzomib (WST-1); format: cell-based, Mouse; conditions: 24 h incubation, doses 5-100 nM
Nrf1 [8] = test: 3xPSMA4-ARE dual luciferase reporter assay in MEFs; format: cell-based, Mouse; conditions: 12 hour incubation
Excerpt: According to the theory the active form (p110) of Nrf1 that translocates to the nucleus and activates proteasome genes, is produced upon removal of the N-glycans. Using a construct in which three copies of the antioxidant respond element (ARE) of the human PSMA4 gene were inserted upstream of a SV40 promoter that drives the expression of firefly luciferase in a dual luciferase reporter assay, where plasmids expressing renilla luciferase were used as internal transfection control, we compared the reporter activity in NGly1^−/− MEFs and Wt MEFs after treatment with carfilzomib.
as §1
Cells were transiently transfected with the firefly (promoter reporters) and renilla luciferase (pRL-TK; Promega) constructs along with effector plasmid as required. […]

K562 cells = test: Carfilzomib sensitivity of CRISPRi-knockdown K562 cell lines; format: cell-based
Experimental: Carfilzomib sensitivity of CRISPRi-knockdown k562 cell lines. Carfilzomib dissolved in DMSO at a concentration of 10 mM was used freshly or stored at −80° C. for no longer than a month without repeated freeze-thaw cycles. K562 cells were seeded at a density of 0.2 million cells/ml in 100 μl of RPMI medium in each well of a 96-well plate for 18 hours before treatment. The next day, serial-diluted Carfilzomib or DMSO was added to the cells with a final concentration of DMSO of 0.1% (v/v) in each well. After 48 hours of incubation at 37° C., the plate was retrieved and stained with a calcein-based LIVE/DEAD® Viability/Cytotoxicity Kit (Thermo Fisher Scientific), according to the manufacturer's instruction. The cells were then counted on an Accuri C6 flow cytometer (BD Biosciences, CA, USA). A total of 10,000 events was collected for each well. The viability was calculated as the percent of calcein-positive cells in each Carfilzomib-treated sample, normalized to that of the DMSO-treated vehicle control.

Proteasome = conditions: blood and PBMCs, cited from earlier work

Experimental for H929 cells: Cell survival experiments using the Cell Titer-Glo 2.0 assay were performed in opaque white flat-bottomed 96-well plates. The cells (1.0-2.0×10^4 in 100 μL fresh media) were treated under the desired conditions and incubated for 24 or 48 h before addition of 100 μL assay reagent. Viability was calculated as percent signal compared to vehicle treated cells. Regression analysis and IC50 calculations were performed with GraphPad Prism 7.0.
U266 and H929: U266 or H929 cells were seeded at a density of 0.1 million cells/mL in RPMI medium (100 μL per well). The following day, carfilzomib, DMSO, or WRR139 were added in DMSO to final concentrations as shown for a maximum final concentration of 1% DMSO (v/v). After 48 h of incubation at 37° C. with 5% CO2, the plate was retrieved and treated with the Cell Titer-Glo 2.0 assay. After 10 minutes incubation the plate was analyzed by measuring the luminescence using a Spectra max®i3x (VWR, Australia) plate reader.

Cc1ccc(S(=O)(=O)/C=C/C(=O)N[C@@H](CCc2ccccc2)C(=O)NCCC(C)C)cc1 [WRR139]
concentration at which inhibition of caspases 3/7 is first observed (caspases 3/7): about 10 μM
increase in killing / reduction of LD50 of carfilzomib (U266 cells; U266, WRR139 plus carfilzomib vs carfilzomib alone): 2.6 fold
cell survival, co-inhibition with carfilzomib compared to carfilzomib alone (U266 cells; U266, after 24 hours): significantly decreased cell survival
NGly1 inhibition in validation of the hits (NGly1 [1]; FIG. 4C): inhibit NGly1 in a dose-dependent manner
pIC50 (NGly1 [1]): 5.26
deglycosylation of RNAse B by recombinant Ngly1 (NGly1 [2]): only the original band remains, with no conversion to the deglycosylated form
increase in killing / reduction of LD50 of carfilzomib (H929 cells; H929, WRR139 plus carfilzomib vs carfilzomib alone): 2 fold
cell survival, co-inhibition with carfilzomib compared to carfilzomib alone (H929 cells; H929, after 24 hours): significantly decreased cell survival

COC(=O)C[C@H](NC(=O)[C@H](C)NC(=O)[C@@H](NC(=O)OCc1ccccc1)C(C)C)C(=O)CF [Z-VAD-fmk, carbobenzoxy-valyl-alanyl-aspartyl-[O-methyl]-fluoromethylketone] (Cbz-Val-Ala-Asp(OMe)-CH2F)
pIC50 (NGly1 [1]): 5.36
reporter activity (Nrf1 [3]): did not show an increased reporter activity
deglycosylation of RNAse B by recombinant Ngly1 (NGly1 [2]): only the original band remains, with no conversion to the deglycosylated form
localization of Nrf1 (Nrf1 [4]; compound prior to incubation with carfilzomib): high abundance of Nrf1 in the cytosol
potentiation of proteasome inhibition [5]: unsuccessful
Nrf1 processing (p120/p110 bands) (Nrf1 [6]): abnormal processing of Nrf1

CC(C)C[C@H](NC(=O)[C@H](Cc1ccccc1)NC(=O)c1cnccn1)B(O)O [bortezomib]
incidence of neuropathy [7]: 30-60%

CC(C)C[C@H](NC(=O)[C@H](CCc1ccccc1)NC(=O)CN1CCOCC1)C(=O)N[C@@H](Cc1ccccc1)C(=O)N[C@@H](CC(C)C)C(=O)[C@@]1(C)CO1 [carfilzomib]
sensitivity of NGly1-/- cells relative to MEF WT (MEF cells): over 2 fold
localization of Nrf1 (Nrf1 [4]; carfilzomib alone): the majority of Nrf1 was observed in the nucleus
reporter (PSM) activity (Nrf1 [8]; NGly1-/- MEFs): no response
reporter (PSM) activity (Nrf1 [8]; Wt MEFs): increase in PSM activity
LD50 (K562 cells; K562, dCAS9 knockdowns of Nrf1 or NGly1 (sgNrf1-A, sgNrf1-B, sgNGly1)): 20 nM
LD50 (K562 cells; K562, no sgRNA or control sgRNA): 40 nM
inhibition of proteasome activity (Proteasome; 15 mg/m^2, after the first dose): > 75%
inhibition of proteasome activity (Proteasome; after five doses): > 90%
